Experimental data as given in US20210000750A1, “ENGINEERED NANOVESICLES AS CHECKPOINT BLOCKADE FOR CANCER IMMUNOTHERAPY” (NORTH CAROLINA STATE UNIVERSITY, priority 2018, published 2021).

Columns and labels:
B16F10 melanoma tumor = experiment: In vivo anti-tumor efficacy study of NVs; set-up: species or system C57BL/6 mice; settings: seven-group study, every 3 days for five cycles
Protocol: Female C57BL/6 mice were purchased from Jackson Lab (USA). All mouse studies were performed in the context of an animal protocol approved by the Institutional Animal Care and Use Committee at North Carolina State University and University of North Carolina at Chapel Hill. Mice were weighed and randomly divided into different groups. 5 d after 1×10^6 B16F10 tumor cells subcutaneously transplanted into the abdomen of mice (the tumor reaches 40-50 mm^3), PBS, Free nanovesicles (25 mg/kg), PD-1 nanovesicles (25 mg/kg), 1-MT (2.5 mg/kg), 1-MT loaded PD-1 nanovesicles (25 mg/kg), anyi-PD-L1 antibody (2 mg/kg) were administered into mice by tail-vein injection. Tumor incidences were monitored by physical examination and sizes were also measured by digital caliper over time. Tumors were measured by using a vernier calipers and the volume (V) was calculated to be V=d^2×D/2, where d is the shortest and the D is longest diameter of the tumor in mm respectively. To assess potential toxicities, mice were monitored daily for weight loss. For survival assays, the experiments were performed separately.
Bioluminescence images were collected with a Xenogen IVIS Spectrum Imaging System. Living Image software (Xenogen) was used to acquire the data 10 min after intraperitoneal injection of d-luciferin (Pierce) in DPBS (15 mg/mL) into animals (10 μL/g of body weight).

[1] = five-group cyclophosphamide study
Source text: (§1) B16F10 luciferase-tagged B16F10 (1×10^6) melanoma tumor cells were transplanted into the right flank of C57BL/6 mice. Eight days after tumor inoculation, the tumors volume reach around ˜150 mm^3. These tumors were then resected, leaving about 15 mm^3 (10%) tumor volume to mimic the residual tumors in the surgical bed. Briefly, animals were anesthetized in an induction chamber using isoflurane (up to 5% for induction; 1-3% for maintenance), and anaesthesia was maintained via a nose cone. The tumor area was clipped and aseptically prepped. Sterile instruments were used to remove approximately 90% of the tumor. The wound was closed using an Autoclip wound closing system. The mice were randomly divided into several groups of eight mice (n=8) as indicated. The mice firstly were intravenously injected with different treatment formulations: PBS, free platelets […], PD-1 platelets (˜2×10^8), cyclophosphamide (20 mg/kg), cyclophosphamide loaded free platelets (˜2×10^8) or cyclophosphamide loaded PD-1 platelets (˜2×10^8). Immediately after the injection, the surgery was carried out within 10 min one mouse by one mouse. The tumor burden was monitored via the bioluminescence of the cancer cells.

Tregs = format: in vivo, C57BL/6 mice; settings: five-group cyclophosphamide study
[2] = system: B16F10 melanoma residual tumor; experiment: In vivo anti-tumor efficacy, incomplete-tumor-resection model; set-up: species or system C57BL/6 mice; settings: five-group cyclophosphamide study
Source text: as §1

CD8^+ TILs = format: in vivo, C57BL/6 mice; settings: five-group cyclophosphamide study
Protocol: Tumors were dissected from the mice and snap frozen in optimal cutting medium (O.C.T.). Several micrometer sections were cut using a cryotome and mounted on slides. The frozen tumor sections were incubated in PBS for 15 min to remove the embedding medium. The specimens were blocked with the buffer containing 3% BSA. Subsequently, the specimens incubated with CD4 and CD8 primary antibodies (1:50 in 3% BSA) overnight and then washed three times with PBS for 5 min each. After that the specimens were incubated with TRITC secondary antibody (KPL) diluted in 3% BSA at room temperature in the dark for 1 h. Finally, the nucleus was stained with DAPI, and the tissue was washed three times with PBS for 5 min each. Confocal microscopy was performed on a FLUO-VIEW laser scanning confocal microscope […] in sequential scanning mode using a 40×objective.

Compound	suppression of tumor growth (B16F10 melanoma tumor)	hair growth and weight loss [1]	Tregs within the tumor (Tregs)	tumor progression [2]	frequency of Ki67+ T cells (CD8^+ TILs)
Cn1cc(C[C@H](N)C(=O)O)c2ccccc21 [1-MT, 1-methyl-tryptophan]	limited suppression of tumor growth				
O=P1(N(CCCl)CCCl)NCCCO1 (centres unmarked) [cyclophosphamide]		delayed hair growth in the abdomen and slighted weight loss	selectively depleted Tregs	limited results	increased the frequency
